Test results published in patent publication US20070036839A1, “Phosphorylated glucomannane polysaccharides containing 1-6 and 1-2 linkages increase weight gain in poultry” (priority 2005, published 2007).

Experiment: Weekly hematology (CBC with differential); as to Red Blood Cells HCT: test concentration or dose not given here; as to White Blood Cells BASO: test concentration or dose not given here; as to White Blood Cells EOS: test concentration or dose not given here; as to White Blood Cells LYMP + MONO: test concentration or dose not given here; as to White Blood Cells NEUT: test concentration or dose not given here; as to White Blood Cells WBC: test concentration or dose not given here
Assay type: in vivo, Male Ross x Ross broiler chickens

- Others Het/Poly (Day 3, dose group 1): 14.67%
- Red Blood Cells HCT (Day 3, dose group 1): 30.60%
- White Blood Cells BASO (Day 3, dose group 1): 193.33 X/uL
- White Blood Cells EOS (Day 3, dose group 1): 0.00 X/uL
- White Blood Cells LYMP + MONO (Day 3, dose group 1): 2956.67 X/uL
- White Blood Cells NEUT (Day 3, dose group 1): 516.67 X/uL
- White Blood Cells WBC (Day 3, dose group 1): 3670 µL⁻¹
- Others Het/Poly (Day 3, dose group 3): 20.33%
- Red Blood Cells HCT (Day 3, dose group 3): 28.67%
- White Blood Cells BASO (Day 3, dose group 3): 78.33 X/uL
- White Blood Cells EOS (Day 3, dose group 3): 6.67 X/uL
- White Blood Cells LYMP + MONO (Day 3, dose group 3): 2595.00 X/uL
- White Blood Cells NEUT (Day 3, dose group 3): 820.00 X/uL
- White Blood Cells WBC (Day 3, dose group 3): 3500 µL⁻¹
- Others Het/Poly (Day 3, dose group 20): 17.67%
- Red Blood Cells HCT (Day 3, dose group 20): 27.00%
- White Blood Cells BASO (Day 3, dose group 20): 48.33 X/uL
- White Blood Cells EOS (Day 3, dose group 20): 0.00 X/uL
- White Blood Cells LYMP + MONO (Day 3, dose group 20): 2828.33 X/uL
- White Blood Cells NEUT (Day 3, dose group 20): 623.33 X/uL
- White Blood Cells WBC (Day 3, dose group 20): 3500 µL⁻¹
- Others Het/Poly (Day 7, dose group 1): 21.00%
- White Blood Cells BASO (Day 7, dose group 1): 85.00 X/uL
- White Blood Cells EOS (Day 7, dose group 1): 0.00 X/uL
- White Blood Cells LYMP + MONO (Day 7, dose group 1): 4665.00 X/uL
- White Blood Cells NEUT (Day 7, dose group 1): 1250.00 X/uL
- White Blood Cells WBC (Day 7, dose group 1): 6000 µL⁻¹
- Others Het/Poly (Day 7, dose group 3): 21.33%
- White Blood Cells BASO (Day 7, dose group 3): 193.33 X/uL
- White Blood Cells EOS (Day 7, dose group 3): 0.00 X/uL
- White Blood Cells LYMP + MONO (Day 7, dose group 3): 4253.33 X/uL
- White Blood Cells NEUT (Day 7, dose group 3): 1220.00 X/uL
- White Blood Cells WBC (Day 7, dose group 3): 5670 µL⁻¹
- Others Het/Poly (Day 7, dose group 20): 25.67%
- White Blood Cells BASO (Day 7, dose group 20): 113.33 X/uL
- White Blood Cells EOS (Day 7, dose group 20): 0.00 X/uL
- White Blood Cells LYMP + MONO (Day 7, dose group 20): 4050.00 X/uL
- White Blood Cells NEUT (Day 7, dose group 20): 1503.33 X/uL
- White Blood Cells WBC (Day 7, dose group 20): 5670 µL⁻¹
- Others Het/Poly (Day 15, dose group 1): 41.33%
- Red Blood Cells HCT (Day 15, dose group 1): 27.33%
- White Blood Cells BASO (Day 15, dose group 1): 146.67 X/uL
- White Blood Cells EOS (Day 15, dose group 1): 0.00 X/uL
- White Blood Cells LYMP + MONO (Day 15, dose group 1): 4346.67 X/uL
- White Blood Cells NEUT (Day 15, dose group 1): 3506.67 X/uL
- White Blood Cells WBC (Day 15, dose group 1): 8000 µL⁻¹
- Others Het/Poly (Day 15, dose group 3): 39.00%
- Red Blood Cells HCT (Day 15, dose group 3): 31.00%
- White Blood Cells BASO (Day 15, dose group 3): 153.33 X/uL
- White Blood Cells EOS (Day 15, dose group 3): 0.00 X/uL
- White Blood Cells LYMP + MONO (Day 15, dose group 3): 4796.67 X/uL
- White Blood Cells NEUT (Day 15, dose group 3): 3383.33 X/uL
- White Blood Cells WBC (Day 15, dose group 3): 8330 µL⁻¹
- Others Het/Poly (Day 15, dose group 20): 45.33%
- Red Blood Cells HCT (Day 15, dose group 20): 22.00%
- White Blood Cells BASO (Day 15, dose group 20): 113.33 X/uL
- White Blood Cells EOS (Day 15, dose group 20): 0.00 X/uL
- White Blood Cells LYMP + MONO (Day 15, dose group 20): 3710.00 X/uL
- White Blood Cells NEUT (Day 15, dose group 20): 2843.33 X/uL
- White Blood Cells WBC (Day 15, dose group 20): 6670 µL⁻¹
- Others Het/Poly (Day 21, dose group 1): 29.00%
- Red Blood Cells HCT (Day 21, dose group 1): 30.00%
- White Blood Cells BASO (Day 21, dose group 1): 240.00 X/uL
- White Blood Cells EOS (Day 21, dose group 1): 0.00 X/uL
- White Blood Cells LYMP + MONO (Day 21, dose group 1): 5440.00 X/uL
- White Blood Cells NEUT (Day 21, dose group 1): 2320.00 X/uL
- White Blood Cells WBC (Day 21, dose group 1): 8000 µL⁻¹
- Others Het/Poly (Day 21, dose group 3): 26.00%
- Red Blood Cells HCT (Day 21, dose group 3): 30.33%
- White Blood Cells BASO (Day 21, dose group 3): 250.00 X/uL
- White Blood Cells EOS (Day 21, dose group 3): 0.00 X/uL
- White Blood Cells LYMP + MONO (Day 21, dose group 3): 6640.00 X/uL
- White Blood Cells NEUT (Day 21, dose group 3): 2443.33 X/uL
- White Blood Cells WBC (Day 21, dose group 3): 9330 µL⁻¹
- Others Het/Poly (Day 21, dose group 20): 32.67%
- Red Blood Cells HCT (Day 21, dose group 20): 31.00%
- White Blood Cells BASO (Day 21, dose group 20): 306.67 X/uL
- White Blood Cells EOS (Day 21, dose group 20): 0.00 X/uL
- White Blood Cells LYMP + MONO (Day 21, dose group 20): 6746.67 X/uL
- White Blood Cells NEUT (Day 21, dose group 20): 3280.00 X/uL
- White Blood Cells WBC (Day 21, dose group 20): 10330 µL⁻¹
- Others Het/Poly (Day 28, dose group 1): 42.00%
- Red Blood Cells HCT (Day 28, dose group 1): 29.33%
- White Blood Cells BASO (Day 28, dose group 1): 446.67 X/uL
- White Blood Cells EOS (Day 28, dose group 1): 0.00 X/uL
- White Blood Cells LYMP + MONO (Day 28, dose group 1): 4546.67 X/uL
- White Blood Cells NEUT (Day 28, dose group 1): 3673.33 X/uL
- White Blood Cells WBC (Day 28, dose group 1): 8670 µL⁻¹
- Others Het/Poly (Day 28, dose group 3): 44.67%
- Red Blood Cells HCT (Day 28, dose group 3): 30.00%
- White Blood Cells BASO (Day 28, dose group 3): 560.00 X/uL
- White Blood Cells EOS (Day 28, dose group 3): 0.00 X/uL
- White Blood Cells LYMP + MONO (Day 28, dose group 3): 3323.33 X/uL
- White Blood Cells NEUT (Day 28, dose group 3): 3450.00 X/uL
- White Blood Cells WBC (Day 28, dose group 3): 7330 µL⁻¹
- Others Het/Poly (Day 28, dose group 20): 45.00%
- Red Blood Cells HCT (Day 28, dose group 20): 33.67%
- White Blood Cells BASO (Day 28, dose group 20): 410.00 X/uL
- White Blood Cells EOS (Day 28, dose group 20): 0.00 X/uL
- White Blood Cells LYMP + MONO (Day 28, dose group 20): 4413.33 X/uL
- White Blood Cells NEUT (Day 28, dose group 20): 3843.33 X/uL
- White Blood Cells WBC (Day 28, dose group 20): 8670 µL⁻¹
- Others Het/Poly (Day 35, dose group 1): 31.33%
- Red Blood Cells HCT (Day 35, dose group 1): 29.67%
- White Blood Cells BASO (Day 35, dose group 1): 253.33 X/uL
- White Blood Cells EOS (Day 35, dose group 1): 0.00 X/uL
- White Blood Cells LYMP + MONO (Day 35, dose group 1): 5046.67 X/uL
- White Blood Cells NEUT (Day 35, dose group 1): 2700.00 X/uL
- White Blood Cells WBC (Day 35, dose group 1): 8000 µL⁻¹
- Others Het/Poly (Day 35, dose group 3): 39.67%
- Red Blood Cells HCT (Day 35, dose group 3): 31.67%
- White Blood Cells BASO (Day 35, dose group 3): 310.00 X/uL
- White Blood Cells EOS (Day 35, dose group 3): 0.00 X/uL
- White Blood Cells LYMP + MONO (Day 35, dose group 3): 4876.67 X/uL
- White Blood Cells NEUT (Day 35, dose group 3): 3146.67 X/uL
- White Blood Cells WBC (Day 35, dose group 3): 8330 µL⁻¹
- Others Het/Poly (Day 35, dose group 20): 31.00%
- Red Blood Cells HCT (Day 35, dose group 20): 28.67%
- White Blood Cells BASO (Day 35, dose group 20): 350.00 X/uL
- White Blood Cells EOS (Day 35, dose group 20): 0.00 X/uL
- White Blood Cells LYMP + MONO (Day 35, dose group 20): 5230.00 X/uL
- White Blood Cells NEUT (Day 35, dose group 20): 2420.00 X/uL
- White Blood Cells WBC (Day 35, dose group 20): 8000 µL⁻¹
- Others Het/Poly (Day 42, dose group 1): 50.00%
- Red Blood Cells HCT (Day 42, dose group 1): 27.67%
- White Blood Cells BASO (Day 42, dose group 1): 353.33 X/uL
- White Blood Cells EOS (Day 42, dose group 1): 106.67 X/uL
- White Blood Cells LYMP + MONO (Day 42, dose group 1): 3913.33 X/uL
- White Blood Cells NEUT (Day 42, dose group 1): 4626.67 X/uL
- White Blood Cells WBC (Day 42, dose group 1): 9000 µL⁻¹
- Others Het/Poly (Day 42, dose group 3): 34.33%
- Red Blood Cells HCT (Day 42, dose group 3): 27.50%
- White Blood Cells BASO (Day 42, dose group 3): 710.00 X/uL
- White Blood Cells EOS (Day 42, dose group 3): 0.00 X/uL
- White Blood Cells LYMP + MONO (Day 42, dose group 3): 4816.67 X/uL
- White Blood Cells NEUT (Day 42, dose group 3): 2806.67 X/uL
- White Blood Cells WBC (Day 42, dose group 3): 8330 µL⁻¹
- Others Het/Poly (Day 42, dose group 20): 43.00%
- Red Blood Cells HCT (Day 42, dose group 20): 34.67%
- White Blood Cells BASO (Day 42, dose group 20): 360.00 X/uL
- White Blood Cells EOS (Day 42, dose group 20): 0.00 X/uL
- White Blood Cells LYMP + MONO (Day 42, dose group 20): 4960.00 X/uL
- White Blood Cells NEUT (Day 42, dose group 20): 4013.33 X/uL
- White Blood Cells WBC (Day 42, dose group 20): 9330 µL⁻¹
- Others Het/Poly (Day 49, dose group 1): 32.00%
- Red Blood Cells HCT (Day 49, dose group 1): 30.00%
- White Blood Cells BASO (Day 49, dose group 1): 370.00 X/uL
- White Blood Cells EOS (Day 49, dose group 1): 0.00 X/uL
- White Blood Cells LYMP + MONO (Day 49, dose group 1): 5266.67 X/uL
- White Blood Cells NEUT (Day 49, dose group 1): 2696.67 X/uL
- White Blood Cells WBC (Day 49, dose group 1): 8330 µL⁻¹
- Others Het/Poly (Day 49, dose group 3): 31.33%
- Red Blood Cells HCT (Day 49, dose group 3): 29.67%
- White Blood Cells BASO (Day 49, dose group 3): 263.33 X/uL
- White Blood Cells EOS (Day 49, dose group 3): 0.00 X/uL
- White Blood Cells LYMP + MONO (Day 49, dose group 3): 6606.67 X/uL
- White Blood Cells NEUT (Day 49, dose group 3): 3130.00 X/uL
- White Blood Cells WBC (Day 49, dose group 3): 10000 µL⁻¹
- Others Het/Poly (Day 49, dose group 20): 30.33%
- Red Blood Cells HCT (Day 49, dose group 20): 31.33%
- White Blood Cells BASO (Day 49, dose group 20): 236.67 X/uL
- White Blood Cells EOS (Day 49, dose group 20): 0.00 X/uL
- White Blood Cells LYMP + MONO (Day 49, dose group 20): 5846.67 X/uL
- White Blood Cells NEUT (Day 49, dose group 20): 2583.33 X/uL
- White Blood Cells WBC (Day 49, dose group 20): 8670 µL⁻¹
Substance: Candida utilis phosphoglucomannan [CUP]
